Laboratory results taken from US20230276831A1, “Food/Beverage Article” (Kikkoman Corporation, priority 2020, published 2023).

Experiments:
[1] = tested on: Lactobacillus rennini (DSM 20253); assay: Antimicrobial action of licoricidin in soy sauce at various pH (Test Example 5); format: cell-based; design: key: A: The bacterial count decreases to less than 10% of the bacterial count of the control group.; B: The bacterial count decreases to 10% or more and less than 50% of the bacterial count of the control group.; C: The bacterial count decreases to 50% or more and less than 100% of the bacterial count of control group.; D: The bacterial count is the same as the bacterial count of the control group; details: salt 4% (w/v)
Method: Commercially available whole soybean soy sauce (produced by Kikkoman Corporation) was electrodialyzed and then concentrated under reduced pressure to obtain soy sauce at a salt concentration of 0% (w/v) and an alcohol concentration of 0% (v/v). Then, salt and/or alcohol was added to the above-mentioned obtained soy sauce, and hydrochloric acid or an aqueous sodium hydroxide solution was then added to adjust the pH to a desired pH. Germfree purified water was added, and the mixture was then heat-treated to produce soy sauce at the salt concentration, the alcohol concentration, and the pH shown in the following Table 17.
Licoricidin (produced by ChemFaces) was added to each of the obtained soy sauces to concentrations of 1 ppm, 5 ppm, 10 ppm, 25 ppm, and 50 ppm. Lactic acid bacteria (Lactobacillus rennini (DSM 20253)) were then added to 10^6 to 10^7 cells/mL and cultured at 30° C. for 7 days. After the culture, the number of lactic acid bacteria was measured using the GAM agar medium “Nissui”. Soy sauce to which licoricidin was not added was used as a control group, and the antimicrobial activity was evaluated in comparison with the number of lactic acid bacteria in the control group. The evaluation was performed using the same criterion as in Test Example 4.

[2] = tested on: Bacillus coagulans (IFO12714); assay: Antimicrobial action of licoricidin on flat sour bacteria in Japanese seasoned soup stock (Test Example 8); format: cell-based; design: key to Evaluation (antimicrobial activity by comparing the pHs): A: There is no change in pH as compared with the control.; B: The pH decreases as compared with the control; details: for pH: Japanese seasoned soup stock (salt 3% (w/v), alcohol 0.4% (v/v), pH 5.2), cultured at 45° C. for 7 days; for Evaluation (antimicrobial activity by comparing the pHs): Japanese seasoned soup stock
Method: Specifically, components contained in dried bonito was extracted with water; Koikuchi soy sauce (produced by Kikkoman Corporation), sugar, and salt were blended with the obtained extract; and the resulting mixture was heated to produce Japanese seasoned soup stock. The salt concentration of the obtained Japanese seasoned soup stock was 3% (w/v), the alcohol concentration was 0.4% (v/v), and the pH was 5.2.
Licoricidin (produced by ChemFaces) was added to the produced Japanese seasoned soup stock to concentrations of 1 ppm, 5 ppm, 10 ppm, 25 ppm, and 50 ppm. Flat sour bacteria (Bacillus coagulans (IFO12714)) were then added to 10^4 to 10^5 cells/mL and cultured at 45° C. for 7 days. Japanese seasoned soup stock to which licoricidin was not added was used as a control, and the antimicrobial activity was evaluated by comparing the pHs. The evaluation was performed using the following criterion.
• A: There is no change in pH as compared with the control. • B: The pH decreases as compared with the control.

COc1c(CC=C(C)C)c(O)cc2c1C[C@H](c1ccc(O)c(CC=C(C)C)c1O)CO2 [Licoricidin, 4-[(R)-7-hydroxy-5-methoxy-6-(3-methyl-2-butenyl)chroman-3-yl]-2-(3-methyl-2-butenyl)-1,3-benzenediol]
Antimicrobial activity ([1]; pH 4.2, alcohol 5% (v/v), licoricidin 1 ppm): C (The bacterial count decreases to 50% or more and less than 100% of the bacterial count of control group.) | Antimicrobial activity ([1]; pH 4.2, alcohol 5% (v/v), licoricidin 5 ppm): A (The bacterial count decreases to less than 10% of the bacterial count of the control group.) | Antimicrobial activity ([1]; pH 4.2, alcohol 5% (v/v), licoricidin 10 ppm): A (The bacterial count decreases to less than 10% of the bacterial count of the control group.) | Antimicrobial activity ([1]; pH 4.2, alcohol 5% (v/v), licoricidin 25 ppm): A (The bacterial count decreases to less than 10% of the bacterial count of the control group.) | Antimicrobial activity ([1]; pH 4.2, alcohol 5% (v/v), licoricidin 50 ppm): A (The bacterial count decreases to less than 10% of the bacterial count of the control group.) | Antimicrobial activity ([1]; pH 4.6, alcohol 0% (v/v), licoricidin 1 ppm): D | Antimicrobial activity ([1]; pH 4.6, alcohol 0% (v/v), licoricidin 5 ppm): D | Antimicrobial activity ([1]; pH 4.6, alcohol 0% (v/v), licoricidin 10 ppm): A (The bacterial count decreases to less than 10% of the bacterial count of the control group.) | Antimicrobial activity ([1]; pH 4.6, alcohol 0% (v/v), licoricidin 25 ppm): A (The bacterial count decreases to less than 10% of the bacterial count of the control group.) | Antimicrobial activity ([1]; pH 4.6, alcohol 0% (v/v), licoricidin 50 ppm): A (The bacterial count decreases to less than 10% of the bacterial count of the control group.) | Antimicrobial activity ([1]; pH 4.6, alcohol 5% (v/v), licoricidin 1 ppm): B (The bacterial count decreases to 10% or more and less than 50% of the bacterial count of the control group.) | Antimicrobial activity ([1]; pH 4.6, alcohol 5% (v/v), licoricidin 5 ppm): A (The bacterial count decreases to less than 10% of the bacterial count of the control group.) | Antimicrobial activity ([1]; pH 4.6, alcohol 5% (v/v), licoricidin 10 ppm): A (The bacterial count decreases to less than 10% of the bacterial count of the control group.) | Antimicrobial activity ([1]; pH 4.6, alcohol 5% (v/v), licoricidin 25 ppm): A (The bacterial count decreases to less than 10% of the bacterial count of the control group.) | Antimicrobial activity ([1]; pH 4.6, alcohol 5% (v/v), licoricidin 50 ppm): A (The bacterial count decreases to less than 10% of the bacterial count of the control group.) | Antimicrobial activity ([1]; pH 5.0, alcohol 0% (v/v), licoricidin 1 ppm): B (The bacterial count decreases to 10% or more and less than 50% of the bacterial count of the control group.) | Antimicrobial activity ([1]; pH 5.0, alcohol 0% (v/v), licoricidin 5 ppm): A (The bacterial count decreases to less than 10% of the bacterial count of the control group.) | Antimicrobial activity ([1]; pH 5.0, alcohol 0% (v/v), licoricidin 10 ppm): A (The bacterial count decreases to less than 10% of the bacterial count of the control group.) | Antimicrobial activity ([1]; pH 5.0, alcohol 0% (v/v), licoricidin 25 ppm): A (The bacterial count decreases to less than 10% of the bacterial count of the control group.) | Antimicrobial activity ([1]; pH 5.0, alcohol 0% (v/v), licoricidin 50 ppm): A (The bacterial count decreases to less than 10% of the bacterial count of the control group.) | Antimicrobial activity ([1]; pH 5.0, alcohol 5% (v/v), licoricidin 1 ppm): C (The bacterial count decreases to 50% or more and less than 100% of the bacterial count of control group.) | Antimicrobial activity ([1]; pH 5.0, alcohol 5% (v/v), licoricidin 5 ppm): A (The bacterial count decreases to less than 10% of the bacterial count of the control group.) | Antimicrobial activity ([1]; pH 5.0, alcohol 5% (v/v), licoricidin 10 ppm): A (The bacterial count decreases to less than 10% of the bacterial count of the control group.) | Antimicrobial activity ([1]; pH 5.0, alcohol 5% (v/v), licoricidin 25 ppm): A (The bacterial count decreases to less than 10% of the bacterial count of the control group.) | Antimicrobial activity ([1]; pH 5.0, alcohol 5% (v/v), licoricidin 50 ppm): A (The bacterial count decreases to less than 10% of the bacterial count of the control group.) | Antimicrobial activity ([1]; pH 5.4, alcohol 0% (v/v), licoricidin 1 ppm): B (The bacterial count decreases to 10% or more and less than 50% of the bacterial count of the control group.) | Antimicrobial activity ([1]; pH 5.4, alcohol 0% (v/v), licoricidin 5 ppm): A (The bacterial count decreases to less than 10% of the bacterial count of the control group.) | Antimicrobial activity ([1]; pH 5.4, alcohol 0% (v/v), licoricidin 10 ppm): A (The bacterial count decreases to less than 10% of the bacterial count of the control group.) | Antimicrobial activity ([1]; pH 5.4, alcohol 0% (v/v), licoricidin 25 ppm): A (The bacterial count decreases to less than 10% of the bacterial count of the control group.) | Antimicrobial activity ([1]; pH 5.4, alcohol 0% (v/v), licoricidin 50 ppm): A (The bacterial count decreases to less than 10% of the bacterial count of the control group.) | Antimicrobial activity ([1]; pH 5.4, alcohol 5% (v/v), licoricidin 1 ppm): C (The bacterial count decreases to 50% or more and less than 100% of the bacterial count of control group.) | Antimicrobial activity ([1]; pH 5.4, alcohol 5% (v/v), licoricidin 5 ppm): A (The bacterial count decreases to less than 10% of the bacterial count of the control group.) | Antimicrobial activity ([1]; pH 5.4, alcohol 5% (v/v), licoricidin 10 ppm): A (The bacterial count decreases to less than 10% of the bacterial count of the control group.) | Antimicrobial activity ([1]; pH 5.4, alcohol 5% (v/v), licoricidin 25 ppm): A (The bacterial count decreases to less than 10% of the bacterial count of the control group.) | Antimicrobial activity ([1]; pH 5.4, alcohol 5% (v/v), licoricidin 50 ppm): A (The bacterial count decreases to less than 10% of the bacterial count of the control group.) | Antimicrobial activity ([1]; pH 5.8, alcohol 0% (v/v), licoricidin 1 ppm): D | Antimicrobial activity ([1]; pH 5.8, alcohol 0% (v/v), licoricidin 5 ppm): A (The bacterial count decreases to less than 10% of the bacterial count of the control group.) | Antimicrobial activity ([1]; pH 5.8, alcohol 0% (v/v), licoricidin 10 ppm): A (The bacterial count decreases to less than 10% of the bacterial count of the control group.) | Antimicrobial activity ([1]; pH 5.8, alcohol 0% (v/v), licoricidin 25 ppm): A (The bacterial count decreases to less than 10% of the bacterial count of the control group.) | Antimicrobial activity ([1]; pH 5.8, alcohol 0% (v/v), licoricidin 50 ppm): A (The bacterial count decreases to less than 10% of the bacterial count of the control group.) | Antimicrobial activity ([1]; pH 5.8, alcohol 5% (v/v), licoricidin 1 ppm): D | Antimicrobial activity ([1]; pH 5.8, alcohol 5% (v/v), licoricidin 5 ppm): D | Antimicrobial activity ([1]; pH 5.8, alcohol 5% (v/v), licoricidin 10 ppm): A (The bacterial count decreases to less than 10% of the bacterial count of the control group.) | Antimicrobial activity ([1]; pH 5.8, alcohol 5% (v/v), licoricidin 25 ppm): A (The bacterial count decreases to less than 10% of the bacterial count of the control group.) | Antimicrobial activity ([1]; pH 5.8, alcohol 5% (v/v), licoricidin 50 ppm): A (The bacterial count decreases to less than 10% of the bacterial count of the control group.) | pH ([2]; licoricidin 1 ppm): 4.1 | pH ([2]; licoricidin 5 ppm): 4.1 | pH ([2]; licoricidin 10 ppm): 5.3 | pH ([2]; licoricidin 25 ppm): 5.3 | pH ([2]; licoricidin 50 ppm): 5.2 | Evaluation (antimicrobial activity by comparing the pHs) ([2]; licoricidin 1 ppm): B | Evaluation (antimicrobial activity by comparing the pHs) ([2]; licoricidin 5 ppm): B | Evaluation (antimicrobial activity by comparing the pHs) ([2]; licoricidin 10 ppm): A | Evaluation (antimicrobial activity by comparing the pHs) ([2]; licoricidin 25 ppm): A | Evaluation (antimicrobial activity by comparing the pHs) ([2]; licoricidin 50 ppm): A | Antimicrobial activity to flat sour bacteria ([2]; conclusion of Test Example 8): exhibited antimicrobial activity
